US20260285875A1, “INHIBITORS OF PARG” (858 Therapeutics, Inc., priority 2023, published 2026)
pIC50: −log10 of the molar value.

molecular target: T1, cellular PARG (Homo sapiens, UniProt Q86W56); experiment: Nuclear PAR accumulation assay (immunofluorescence high-content imaging, MMS-treated HeLa cells); assay type: cell-based; conditions: 1 hour compound then MMS 50 μg/mL for an additional hour
T1 construct: endogenous in cells; host or cells: HeLa
In short: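 HeLa cells pretreated with compound for 1 h at 37° C, then given 50 μg/mL MMS for another hour. After methanol fixation, PAR was immunostained with DAPI nuclear counterstain; per-nucleus intensity and percent PAR-positive cells were imaged at 20× (≥1,000 cells/well). IC50 from four-parameter logistic fit.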

T1 sequence (Q86W56 whole entry): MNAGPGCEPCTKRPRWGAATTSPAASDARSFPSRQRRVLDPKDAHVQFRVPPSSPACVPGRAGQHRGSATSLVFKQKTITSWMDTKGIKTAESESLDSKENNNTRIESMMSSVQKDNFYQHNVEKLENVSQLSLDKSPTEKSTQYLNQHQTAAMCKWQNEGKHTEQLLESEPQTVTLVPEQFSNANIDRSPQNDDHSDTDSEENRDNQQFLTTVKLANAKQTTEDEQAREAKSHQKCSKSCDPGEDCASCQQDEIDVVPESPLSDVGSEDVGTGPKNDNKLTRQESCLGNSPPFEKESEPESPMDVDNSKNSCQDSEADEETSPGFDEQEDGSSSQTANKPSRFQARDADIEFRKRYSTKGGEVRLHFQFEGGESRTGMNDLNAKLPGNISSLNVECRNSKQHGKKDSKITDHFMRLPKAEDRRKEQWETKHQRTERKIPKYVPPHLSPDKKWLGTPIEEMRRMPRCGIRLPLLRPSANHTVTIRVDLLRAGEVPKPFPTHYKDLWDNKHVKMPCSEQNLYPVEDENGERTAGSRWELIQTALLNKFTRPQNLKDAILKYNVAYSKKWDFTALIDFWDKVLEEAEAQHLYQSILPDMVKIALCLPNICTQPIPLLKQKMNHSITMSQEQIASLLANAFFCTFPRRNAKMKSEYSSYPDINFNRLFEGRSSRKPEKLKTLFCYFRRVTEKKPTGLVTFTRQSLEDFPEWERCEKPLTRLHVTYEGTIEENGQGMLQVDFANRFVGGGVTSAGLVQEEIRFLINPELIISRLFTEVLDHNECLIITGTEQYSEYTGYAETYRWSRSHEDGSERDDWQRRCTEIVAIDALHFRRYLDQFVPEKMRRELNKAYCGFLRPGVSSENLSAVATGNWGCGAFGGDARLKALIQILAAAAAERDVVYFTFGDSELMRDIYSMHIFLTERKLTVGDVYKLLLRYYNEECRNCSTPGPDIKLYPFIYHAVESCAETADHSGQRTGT

Row | pIC50 | SMILES
1 | > 7.00 | Cn1cc(CN2C(=O)c3cc(S(=O)(=O)NC4(C)CC4)ccc3N3C2=NC[C@H]3C#Cc2ccccn2)cn1 [Example 67, (R)-4-((1-methyl-1H-pyrazol-4-yl)methyl)-N-(1-methylcyclopropyl)-5-oxo-1-(pyridin-2-ylethynyl)-1,2,4,5-tetrahydroimidazo[1,2-a]quinazoline-7-sulfonamide]
2 | > 7.00 | Cn1cc(CN2C(=O)c3cc(S(=O)(=O)NC4(C)CC4)ccc3N3C2=NC[C@H]3C#Cc2ncccn2)cn1 [Example 68, (R)-4-((1-methyl-1H-pyrazol-4-yl)methyl)-N-(1-methylcyclopropyl)-5-oxo-1-(pyrimidin-2-ylethynyl)-1,2,4,5-tetrahydroimidazo[1,2-a]quinazoline-7-sulfonamide]
3 | 6.00 to 7.00 | Cn1cc(CN2C(=O)c3cc(S(=O)(=O)NC4(C)CC4)ccc3N3C2=NC[C@H]3C#CC(C)(C)O)cn1 [Example 69, (R)-1-(3-hydroxy-3-methylbut-1-yn-1-yl)-4-((1-methyl-1H-pyrazol-4-yl)methyl)-N-(1-methylcyclopropyl)-5-oxo-1,2,4,5-tetrahydroimidazo[1,2-a]quinazoline-7-sulfonamide]
4 | 5.00 to 6.00 | CN1CCC([C@@H]2CN=C3N(Cc4cnn(C)c4)C(=O)c4cc(S(=O)(=O)NC5(C)CC5)ccc4N32)CC1 [Example 70, (R)-4-((1-methyl-1H-pyrazol-4-yl)methyl)-N-(1-methylcyclopropyl)-1-(1-methylpiperidin-4-yl)-5-oxo-1,2,4,5-tetrahydroimidazo[1,2-a]quinazoline-7-sulfonamide]
5 | 6.00 to 7.00 | C[C@@H]1CN=C2N(Cc3cnn(C)c3)C(=O)c3cc(S(=O)(=O)NC4(C)CC4)cc(N4CC[C@@H](N)C4)c3N21 [Example 71, (R)-9-((R)-3-aminopyrrolidin-1-yl)-1-methyl-4-((1-methyl-1H-pyrazol-4-yl)methyl)-N-(1-methylcyclopropyl)-5-oxo-1,2,4,5-tetrahydroimidazo[1,2-a]quinazoline-7-sulfonamide]
6 | > 7.00 | C#C[C@@H]1CN=C2N(Cc3cnn(C)c3)C(=O)c3cc(S(=O)(=O)NC4(C)CC4)cc(Br)c3N21 [Example 72, (R)-9-bromo-1-ethynyl-4-((1-methyl-1H-pyrazol-4-yl)methyl)-N-(1-methylcyclopropyl)-5-oxo-1,2,4,5-tetrahydroimidazo[1,2-a]quinazoline-7-sulfonamide]
7 | 6.00 to 7.00 | C[C@@H]1CN=C2N(Cc3cnn(C)c3)C(=O)c3cc(S(=O)(=O)NC4(C)COC4)ccc3N21 [Example 73, (R)-1-methyl-4-((1-methyl-1H-pyrazol-4-yl)methyl)-N-(3-methyloxetan-3-yl)-5-oxo-1,2,4,5-tetrahydroimidazo[1,2-a]quinazoline-7-sulfonamide]
8 | 5.00 to 6.00 | C[C@@H]1CN=C2N(Cc3cnn(C)c3)C(=O)c3cc(S(=O)(=O)NC4(C)CC4)cc(N4CC(C)(N)C4)c3N21 [Example 74, (R)-9-(3-amino-3-methylazetidin-1-yl)-1-methyl-4-((1-methyl-1H-pyrazol-4-yl)methyl)-N-(1-methylcyclopropyl)-5-oxo-1,2,4,5-tetrahydroimidazo[1,2-a]quinazoline-7-sulfonamide]
9 | 6.00 to 7.00 | C[C@@H]1CN=C2N(Cc3cnn(C)c3)C(=O)c3cc(S(=O)(=O)NC4(C)CC4)cc(N4CC[C@H](N)C4)c3N21 [Example 75, (R)-9-((S)-3-aminopyrrolidin-1-yl)-1-methyl-4-((1-methyl-1H-pyrazol-4-yl)methyl)-N-(1-methylcyclopropyl)-5-oxo-1,2,4,5-tetrahydroimidazo[1,2-a]quinazoline-7-sulfonamide]
10 | > 7.00 | C#C[C@@H]1CN=C2N(Cc3cnn(C)c3)C(=O)c3cc(S(=O)(=O)NC4(C)CC4)cc(C4=CCN(C)CC4)c3N21 [Example 76, (R)-1-ethynyl-9-(1-methyl-1,2,3,6-tetrahydropyridin-4-yl)-4-((1-methyl-1H-pyrazol-4-yl)methyl)-N-(1-methylcyclopropyl)-5-oxo-1,2,4,5-tetrahydroimidazo[1,2-a]quinazoline-7-sulfonamide]
11 | > 7.00 | Cn1cc(CN2C(=O)c3cc(S(=O)(=O)NC4(C)CC4)ccc3N3C2=NC[C@H]3C#Cc2cnccn2)cn1 [Example 77, (R)-4-((1-methyl-1H-pyrazol-4-yl)methyl)-N-(1-methylcyclopropyl)-5-oxo-1-(pyrazin-2-ylethynyl)-1,2,4,5-tetrahydroimidazo[1,2-a]quinazoline-7-sulfonamide]
12 | 6.00 to 7.00 | C[C@@H]1CN(c2cc(S(=O)(=O)NC3(C)CC3)cc3c2N2C(=NC[C@H]2C)N(Cc2cnn(C)c2)C3=O)CCN1 [Example 78, (R)-1-methyl-4-((1-methyl-1H-pyrazol-4-yl)methyl)-N-(1-methylcyclopropyl)-9-((R)-3-methylpiperazin-1-yl)-5-oxo-1,2,4,5-tetrahydroimidazo[1,2-a]quinazoline-7-sulfonamide]
13 | 6.00 to 7.00 | C#C[C@@H]1CN=C2N(Cc3cnn(C)c3)C(=O)c3cc(S(=O)(=O)NC4(C)CC4)cc(C4=CCNCC4)c3N21 [Example 79, (R)-1-ethynyl-4-((1-methyl-1H-pyrazol-4-yl)methyl)-N-(1-methylcyclopropyl)-5-oxo-9-(1,2,3,6-tetrahydropyridin-4-yl)-1,2,4,5-tetrahydroimidazo[1,2-a]quinazoline-7-sulfonamide]
14 | 6.00 to 7.00 | C[C@@H]1CN=C2N(Cc3cnn(C)c3)C(=O)c3cc(S(=O)(=O)NC4(C)CC4)cc(C4=CCNCC4)c3N21 [Example 80, (R)-1-methyl-4-((1-methyl-1H-pyrazol-4-yl)methyl)-N-(1-methylcyclopropyl)-5-oxo-9-(1,2,3,6-tetrahydropyridin-4-yl)-1,2,4,5-tetrahydroimidazo[1,2-a]quinazoline-7-sulfonamide]
15 | > 7.00 | CCN(CC)CC#C[C@@H]1CN=C2N(Cc3cnn(C)c3)C(=O)c3cc(S(=O)(=O)NC4(C)CC4)ccc3N21 [Example 81, (R)-1-(3-(diethylamino)prop-1-yn-1-yl)-4-((1-methyl-1H-pyrazol-4-yl)methyl)-N-(1-methylcyclopropyl)-5-oxo-1,2,4,5-tetrahydroimidazo[1,2-a]quinazoline-7-sulfonamide]
16 | 5.00 to 6.00 | C[C@@H]1CN=C2N(Cc3cnn(C)c3)C(=O)c3cc(S(=O)(=O)NC4(C)CC4)cc(N4CCN[C@@H](C)C4)c3N21 [Example 82, (R)-1-methyl-4-((1-methyl-1H-pyrazol-4-yl)methyl)-N-(1-methylcyclopropyl)-9-((S)-3-methylpiperazin-1-yl)-5-oxo-1,2,4,5-tetrahydroimidazo[1,2-a]quinazoline-7-sulfonamide]
17 | > 7.00 | Cn1cc(CN2C(=O)c3cc(S(=O)(=O)NC4(C)CC4)ccc3N3C2=NC[C@H]3C#Cc2nccn2C)cn1 [Example 83, (R)-1-((1-methyl-1H-imidazol-2-yl)ethynyl)-4-((1-methyl-1H-pyrazol-4-yl)methyl)-N-(1-methylcyclopropyl)-5-oxo-1,2,4,5-tetrahydroimidazo[1,2-a]quinazoline-7-sulfonamide]
18 | 6.00 to 7.00 | Cc1nnc(N2C3=NC[C@@H](C)N3c3ccc(S(=O)(=O)NC4(C)CC4)cc32)s1 [Example 84, (R)-3-methyl-9-(5-methyl-1,3,4-thiadiazol-2-yl)-N-(1-methylcyclopropyl)-2,9-dihydro-3H-benzo[d]imidazo[1,2-a]imidazole-7-sulfonamide]
19 | > 7.00 | C[C@@H]1CCN=C2N(c3nnc(C(F)F)s3)c3cc(S(=O)(=O)NC4(C)CC4)ccc3N21 [Example 85]
20 | > 7.00 | CC1(NS(=O)(=O)c2ccc3c(c2)N(c2nnc(C(F)F)s2)C2=NOCCN23)CC1 [Example 86, 10-(5-(difluoromethyl)-1,3,4-thiadiazol-2-yl)-N-(1-methylcyclopropyl)-3,4-dihydro-10H-benzo[4,5]imidazo[2,1-c][1,2,4]oxadiazine-8-sulfonamide]
21 | > 7.00 | Cn1cc(CN2C(=O)c3cc(S(=O)(=O)NC4(C)CC4)ccc3N3C2=NC[C@H]3C#CCN2CCCC2)cn1 [Example 87, (R)-4-((1-methyl-1H-pyrazol-4-yl)methyl)-N-(1-methylcyclopropyl)-5-oxo-1-(3-(pyrrolidin-1-yl)prop-1-yn-1-yl)-1,2,4,5-tetrahydroimidazo[1,2-a]quinazoline-7-sulfonamide]
22 | > 7.00 | C[C@@H]1CN(c2cc(S(=O)(=O)NC3(C)CC3)cc3c2N2C(=NC[C@H]2C)N(Cc2cnn(C)c2)C3=O)C[C@@H](C)N1 [Example 88, (R)-9-((3R,5R)-3,5-dimethylpiperazin-1-yl)-1-methyl-4-((1-methyl-1H-pyrazol-4-yl)methyl)-N-(1-methylcyclopropyl)-5-oxo-1,2,4,5-tetrahydroimidazo[1,2-a]quinazoline-7-sulfonamide]
23 | 5.00 to 6.00 | Cn1cc(CN2C(=O)c3cc(S(=O)(=O)NC4(C)CC4)ccc3N3C2=NC[C@H]3C#CC2CNC2)cn1 [Example 89, (R)-1-(azetidin-3-ylethynyl)-4-((1-methyl-1H-pyrazol-4-yl)methyl)-N-(1-methylcyclopropyl)-5-oxo-1,2,4,5-tetrahydroimidazo[1,2-a]quinazoline-7-sulfonamide]
24 | 6.00 to 7.00 | [2H]C([2H])(c1cnn(C)c1)N1C(=O)c2cc(S(=O)(=O)NC3(C)CC3)ccc2N2C1=NC[C@@H]2C#C [Example 90, (S)-1-ethynyl-4-((1-methyl-1H-pyrazol-4-yl)methyl-d2)-N-(1-methylcyclopropyl)-5-oxo-1,2,4,5-tetrahydroimidazo[1,2-a]quinazoline-7-sulfonamide]
25 | 6.00 to 7.00 | Cn1cc(C#C[C@H]2CN=C3N(Cc4cnn(C)c4)C(=O)c4cc(S(=O)(=O)NC5(C)CC5)ccc4N32)cn1 [Example 91, (S′)-1-((1-methyl-1H-pyrazol-4-yl)ethynyl)-4-((1-methyl-1H-pyrazol-4-yl)methyl)-N-(1-methylcyclopropyl)-5-oxo-1,2,4,5-tetrahydroimidazo[1,2-a]quinazoline-7-sulfonamide]
